Source: ChEMBL document CHEMBL1201861, “Genomics of Drug Sensitity in Cancer screening data, Wellcome Trust Sanger Institute”

How the values were obtained:
[1] = tested on: TE-441-T; experiment: cells; type: functional, cell-based, Homo sapiens; conditions: Homo sapiens, TE-441-T
Description: SANGER: Inhibition of human TE-441-T cell growth in a cell viability assay.

[2] = tested on: NCI-H524; experiment: cells; type: functional, cell-based, Homo sapiens; conditions: Homo sapiens, NCI-H524;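 also: growth inhibition of human NCI-H524 cells, read out through a cell viability assay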
Description: SANGER: Inhibition of human NCI-H524 cell growth in a cell viability assay.

[3] = tested on: NCI-H1882; experiment: cells; type: functional, cell-based, Homo sapiens; conditions: Homo sapiens, NCI-H1882;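 also: growth inhibition of the cell line, determined with a viability assay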
Description: SANGER: Inhibition of human NCI-H1882 cell growth in a cell viability assay.

[4] = tested on: MONO-MAC-6; experiment: cells; type: functional, cell-based, Homo sapiens; conditions: Homo sapiens, MONO-MAC-6;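 also: cell viability assay measuring growth inhibition of human MONO-MAC-6 cells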
Description: SANGER: Inhibition of human MONO-MAC-6 cell growth in a cell viability assay.

[5] = tested on: KMS-12-PE; experiment: cells; type: functional, cell-based, Homo sapiens; conditions: Homo sapiens, KMS-12-PE;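 also: growth inhibition of human KMS-12-PE cells, measured with a cell viability assay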
Description: SANGER: Inhibition of human KMS-12-PE cell growth in a cell viability assay.

[6] = tested on: MC-CAR; experiment: cells; type: functional, cell-based, Homo sapiens; conditions: Homo sapiens, MC-CAR;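 also: growth inhibition of the human MC-CAR cell line, read out by a cell viability assay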
Description: SANGER: Inhibition of human MC-CAR cell growth in a cell viability assay.

[7] = tested on: NB1; experiment: cells; type: functional, cell-based, Homo sapiens; conditions: Homo sapiens, NB1;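 also: reduction of NB1 cell proliferation, read out with a viability assay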
Description: SANGER: Inhibition of human NB1 cell growth in a cell viability assay.

[8] = tested on: Daudi; experiment: cells; type: functional, cell-based, Homo sapiens; conditions: Homo sapiens, Daudi;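 also: growth inhibition of Daudi cells, read out by a viability assay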
Description: SANGER: Inhibition of human Daudi cell growth in a cell viability assay.

[9] = tested on: CESS; experiment: SANGER: Inhibition of human CESS cell growth in a cell viability assay.; type: functional, cell-based; conditions: Homo sapiens, CESS
[10] = tested on: EHEB; experiment: cells; type: functional, cell-based; conditions: Homo sapiens;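 also: growth inhibition of human EHEB cells, read out with a cell viability assay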
Description: SANGER: Inhibition of human EHEB cell growth in a cell viability assay.

[11] = tested on: Raji; experiment: cells; type: functional, cell-based, Homo sapiens; conditions: Homo sapiens, Raji;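 also: cell viability assay measuring inhibition of Raji cell growth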
Description: SANGER: Inhibition of human Raji cell growth in a cell viability assay.

[12] = tested on: NCI-H889; experiment: cells; type: functional, cell-based, Homo sapiens; conditions: Homo sapiens, NCI-H889;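 also: cell growth inhibition of the cell line, read out with a viability assay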
Description: SANGER: Inhibition of human NCI-H889 cell growth in a cell viability assay.

[13] = tested on: NCI-H64; experiment: cells; type: functional, cell-based, Homo sapiens; conditions: Homo sapiens, NCI-H64;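 also: growth inhibition of NCI-H64 cells, read out with a cell viability assay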
Description: SANGER: Inhibition of human NCI-H64 cell growth in a cell viability assay.

[14] = tested on: GDM-1; experiment: cells; type: functional, cell-based, Homo sapiens; conditions: Homo sapiens, GDM-1; read-out: IC50;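 also: cell viability readout used to measure growth inhibition of human GDM-1 cells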
Description: SANGER: Inhibition of human GDM-1 cell growth in a cell viability assay.

[15] = tested on: NALM-6; experiment: cells; type: functional, cell-based, Homo sapiens; conditions: Homo sapiens, NALM-6;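 also: growth inhibition of NALM-6 cells, read out with a cell viability assay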
Description: SANGER: Inhibition of human NALM-6 cell growth in a cell viability assay.

[16] = tested on: DMS-153; experiment: cells; type: functional, cell-based, Homo sapiens; conditions: Homo sapiens, DMS-153
Description: SANGER: Inhibition of human DMS-153 cell growth in a cell viability assay.

[17] = tested on: DG-75; experiment: cells; type: functional, cell-based, Homo sapiens; conditions: Homo sapiens, DG-75;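 also: growth inhibition of DG-75 cells, read out with a cell viability assay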
Description: SANGER: Inhibition of human DG-75 cell growth in a cell viability assay.

[18] = tested on: SK-MES-1; experiment: cells; type: functional, cell-based; conditions: Homo sapiens;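 also: growth inhibition of human SK-MES-1 cells, read out with a cell viability assay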
Description: SANGER: Inhibition of human SK-MES-1 cell growth in a cell viability assay.

[19] = tested on: KYSE-180; experiment: cells; type: functional, cell-based; conditions: Homo sapiens;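 also: growth inhibition of KYSE-180 cells, read out with a cell viability assay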
Description: SANGER: Inhibition of human KYSE-180 cell growth in a cell viability assay.

[20] = tested on: KYSE-70 cell line; experiment: cells; type: functional, cell-based; conditions: Homo sapiens;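 also: cell viability assay read-out, with IC50 expressing suppression of KYSE-70 cell growth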
Description: SANGER: Inhibition of human KYSE-70 cell growth in a cell viability assay.

[21] = tested on: LCLC-97TM1; experiment: cells; type: functional, cell-based; conditions: Homo sapiens;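 also: cell viability assay measuring growth inhibition of human LCLC-97TM1 cells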
Description: SANGER: Inhibition of human LCLC-97TM1 cell growth in a cell viability assay.

[22] = tested on: U-251; experiment: cells; type: functional, cell-based; conditions: Homo sapiens;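 also: growth inhibition of human U-251 cells, read out through a cell viability assay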
Description: SANGER: Inhibition of human U251 cell growth in a cell viability assay.

[23] = tested on: HCC1419; experiment: cells; type: functional, cell-based; conditions: Homo sapiens;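 also: growth inhibition of human HCC1419 cells, read out as cell viability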
Description: SANGER: Inhibition of human HCC1419 cell growth in a cell viability assay.

[24] = tested on: ABC-1; experiment: cells; type: functional, cell-based; conditions: Homo sapiens;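 also: growth inhibition of human ABC-1 cells, read out by a cell viability assay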
Description: SANGER: Inhibition of human ABC-1 cell growth in a cell viability assay.

[25] = tested on: NCI-H1755; experiment: cells; type: functional, cell-based; conditions: Homo sapiens;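 also: cell viability readout used to measure growth inhibition of NCI-H1755 cells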
Description: SANGER: Inhibition of human NCI-H1755 cell growth in a cell viability assay.

[26] = tested on: OVCAR-3; experiment: cells; type: functional, cell-based; conditions: Homo sapiens;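 also: growth inhibition of human OVCAR-3 cells, determined by a cell viability assay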
Description: SANGER: Inhibition of human OVCAR-3 cell growth in a cell viability assay.

[27] = tested on: CAL-120; experiment: cells; type: functional, cell-based; conditions: Homo sapiens;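 also: cell growth inhibition, read out as cell viability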
Description: SANGER: Inhibition of human CAL-120 cell growth in a cell viability assay.

[28] = tested on: YAPC; experiment: cells; type: functional, cell-based; conditions: Homo sapiens;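 also: growth inhibition of YAPC cells, measured with a cell viability assay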
Description: SANGER: Inhibition of human YAPC cell growth in a cell viability assay.

[29] = tested on: KYSE-410; experiment: cells; type: functional, cell-based; conditions: Homo sapiens;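 also: growth inhibition of KYSE-410 cells, measured through a cell viability readout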
Description: SANGER: Inhibition of human KYSE-410 cell growth in a cell viability assay.

[30] = tested on: MCF7; experiment: cells; type: functional, cell-based; conditions: Homo sapiens;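 also: growth inhibition of human MCF7 cells, read out with a cell viability assay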
Description: SANGER: Inhibition of human MCF7 cell growth in a cell viability assay.

[31] = tested on: HuCCT-1; experiment: cells; type: functional, cell-based, HuCCT1; conditions: Homo sapiens;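 also: growth inhibition of HuCCT-1 cells, read out by a cell viability assay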
Description: SANGER: Inhibition of human HuCCT1 cell growth in a cell viability assay.

[32] = tested on: EFM-19; experiment: cells; type: functional, cell-based; conditions: Homo sapiens;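 also: growth inhibition of human EFM-19 cells, measured in a cell viability assay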
Description: SANGER: Inhibition of human EFM-19 cell growth in a cell viability assay.

[33] = tested on: SNU-387; experiment: cells; type: functional, cell-based; conditions: Homo sapiens
Description: SANGER: Inhibition of human SNU-387 cell growth in a cell viability assay.

[34] = tested on: HT-1376; experiment: cells; type: functional, cell-based; conditions: Homo sapiens
Description: SANGER: Inhibition of human HT-1376 cell growth in a cell viability assay.

[35] = tested on: MEL-HO; experiment: cells; type: functional, cell-based; conditions: Homo sapiens
Description: SANGER: Inhibition of human MEL-HO cell growth in a cell viability assay.

[36] = tested on: A673; experiment: cells; type: functional, cell-based; conditions: Homo sapiens;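 also: growth inhibition of human A673 cells, read out through a cell viability assay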
Description: SANGER: Inhibition of human A673 cell growth in a cell viability assay.

[37] = tested on: LCLC-103H cell line; experiment: cells; type: functional, cell-based; conditions: Homo sapiens
Description: SANGER: Inhibition of human LCLC-103H cell growth in a cell viability assay.

[38] = tested on: SK-LU-1; experiment: cells; type: functional, cell-based; conditions: Homo sapiens;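 also: cell viability assay measuring growth inhibition of human SK-LU-1 cells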
Description: SANGER: Inhibition of human SK-LU-1 cell growth in a cell viability assay.

[39] = tested on: BT-20; experiment: cells; type: functional, cell-based; conditions: Homo sapiens;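 also: cell viability assay measuring suppression of growth in human BT-20 cells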
Description: SANGER: Inhibition of human BT-20 cell growth in a cell viability assay.

[40] = tested on: GCT; experiment: cells; type: functional, cell-based; conditions: Homo sapiens;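 also: GCT cell line proliferation inhibition, read out with a cell viability assay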
Description: SANGER: Inhibition of human GCT cell growth in a cell viability assay.

[41] = tested on: NCI-H2228; experiment: cells; type: functional, cell-based; conditions: Homo sapiens;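 also: growth inhibition of human NCI-H2228 cells, read out by a cell viability assay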
Description: SANGER: Inhibition of human NCI-H2228 cell growth in a cell viability assay.

[42] = tested on: HTC-C3; experiment: cells; type: functional, cell-based; conditions: Homo sapiens;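 also: inhibition of cell growth, read out with a cell viability assay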
Description: SANGER: Inhibition of human HTC-C3 cell growth in a cell viability assay.

[43] = tested on: LoVo; experiment: cells; type: functional, cell-based; conditions: Homo sapiens;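 also: growth inhibition of human LoVo cells, read out with a cell viability assay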
Description: SANGER: Inhibition of human LoVo cell growth in a cell viability assay.

[44] = tested on: A-427; experiment: cells; type: functional, cell-based; conditions: Homo sapiens;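 also: growth inhibition of human A-427 cells, read out by a cell viability assay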
Description: SANGER: Inhibition of human A427 cell growth in a cell viability assay.

[45] = tested on: NCI-H2087; experiment: cells; type: functional, cell-based; conditions: Homo sapiens;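 also: growth inhibition determined with a cell viability readout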
Description: SANGER: Inhibition of human NCI-H2087 cell growth in a cell viability assay.

[46] = tested on: P12-Ichikawa; experiment: cells; type: functional, cell-based; conditions: Homo sapiens
[47] = tested on: NCI-H2342; experiment: cells; type: functional, cell-based; conditions: Homo sapiens;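 also: growth inhibition of the cancer cell line, determined with a cell viability assay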
Description: SANGER: Inhibition of human NCI-H2342 cell growth in a cell viability assay.

[48] = tested on: UMC-11; experiment: cells; type: functional, cell-based; conditions: Homo sapiens;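 also: growth inhibition of UMC-11 cells, read out with a cell viability assay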
Description: SANGER: Inhibition of human UMC-11 cell growth in a cell viability assay.

[49] = tested on: DoTc2-4510; experiment: cells; type: functional, cell-based; conditions: Homo sapiens
[50] = tested on: CAKI-1; experiment: cells; type: functional, cell-based; conditions: Homo sapiens;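 also: growth inhibition of CAKI-1 cells, measured by a cell viability assay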
Description: SANGER: Inhibition of human CAKI-1 cell growth in a cell viability assay.

[51] = tested on: NCI-H1793; experiment: cells; type: functional, cell-based; conditions: Homo sapiens;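 also: cell growth inhibition, read out by a cell viability assay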
Description: SANGER: Inhibition of human NCI-H1793 cell growth in a cell viability assay.

[52] = tested on: BXPC-3; experiment: cells; type: functional, cell-based; conditions: Homo sapiens;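 also: growth inhibition of human BxPC-3 cells, read out by a cell viability assay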
Description: SANGER: Inhibition of human BxPC-3 cell growth in a cell viability assay.

[53] = tested on: SK-OV-3; experiment: cells; type: functional, cell-based; conditions: Homo sapiens;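 also: growth inhibition of SK-OV-3 human cells, read out with a cell viability assay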
Description: SANGER: Inhibition of human SK-OV-3 cell growth in a cell viability assay.

[54] = tested on: PC-3; experiment: cells; type: functional, cell-based; conditions: Homo sapiens
Description: SANGER: Inhibition of human PC-3 cell growth in a cell viability assay.

Measured: IC50

C[C@@H](Oc1cc(-c2cnn(C3CCNCC3)c2)cnc1N)c1c(Cl)ccc(F)c1Cl [CRIZOTINIB]
> 2 µM: [1] | [2] | [3] | [4] | [5] | [6] | [8] | [9] | [10] | [11] | [12] | [13] | [14] | [15] | [16] | [17]
0.092 µM: [7]

NC(=O)c1cccc(-c2cc(Nc3ccc(OC(F)(F)F)cc3)ncn2)c1
> 1.28 µM: [1] | [2] | [3] | [4] | [5] | [6] | [7] | [8] | [9] | [10] | [11] | [12] | [13] | [14] | [15] | [16] | [17]

C=CC(=O)N1CCCC(Nc2nc(Nc3ccc(N(C)C(=O)CC)cc3)nc3[nH]cnc23)C1 (stereo not given)
> 10.2 µM: [1] | [2] | [3] | [4] | [5] | [6] | [7] | [8] | [9] | [10] | [11] | [12] | [13] | [14] | [15] | [16] | [17]

NC1(c2ccc(-c3nc4ccn5c(=O)[nH]nc5c4cc3-c3ccccc3)cc2)CCC1 [MK-2206]
0.489 µM: [23]
2.32 µM: [41]
2.33 µM: [24]
0.116 µM: [46]
0.44 µM: [32]
3.41 µM: [26]
2.86 µM: [30]
1.33 µM: [43]
1.88 µM: [33]
not listed: [1] | [2] | [3] | [4] | [5] | [6] | [7] | [8] | [9] | [10] | [11] | [12] | [13] | [14] | [15] | [16] | [17]
> 4 µM: all other assays above

Cc1cc(N2CCOCC2)cc2[nH]c(-c3c(NC[C@@H](O)c4cccc(Cl)c4)cc[nH]c3=O)nc12
> 5.12 µM: [1] | [2] | [5] | [6] | [7] | [8] | [9] | [10] | [11] | [12] | [13] | [14] | [16] | [17]
0.608 µM: [4]
2.97 µM: [15]
0.956 µM: [3]
